These are literature values, as cited in article PMC9410468 (Marine Drugs, 2022).

In the data set the test system is rats. The note with it: rats; selective α3β4 nAChR antagonists; cited from earlier work. The source says:
In the mammalian brain, the medial habenula (MHB) expresses high nAChR levels. Recently, α3-containing nAChRs present in the medial habenula have attracted substantial attention because of their potential role in influencing nicotine addiction. In addition, recent studies have shown that the gene polymorphism of the α3 and β4 subunits in vivo are related to nicotine addiction and drug abuse. The α3β4 nAChR subtype is mainly located in the MHB, […] (IPN), and fasciculus retroflexus (FR) of the rat brain. In addition, it is also expres ...

`COCC[C@H]1CC2CN3CCc4c([nH]c5ccccc45)[C@](C(=O)OC)(C2)[C@H]13` [18-methoxycoronaridine (18-MC), 18-methoxycoronaridine]: the “effect on nicotine self-administration (in words)” value is listed as “reduce nicotine self-administration in rats”.
